Results published in patent publication US20240140931A1, “TRICYCLIC COMPOUNDS AND USES THEREOF” (HUTCHMED LIMITED, priority 2021, published 2024).

Key:
[1] = test system: pERK1/2 (Thr202/Tyr204) in Miapaca2 cells; assay: Assay of intracellular pERK1/2 (Thr202/Tyr204) phosphorylation; assay type: cell-based; details: pERK1/2 (Thr202/Tyr204) HTRF
How it was run: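 HTRF read-out (665/615 nm) of phospho-ERK1/2 Thr202/Tyr204 in lysates from Miapaca2 cells exposed for 2 h to 3-fold compound dilutions at 0.5% final DMSO. Controls: lysis buffer without cells and DMSO-treated cells; IC50 from four-parameter logistic fit.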

[2] = biological target: Human full-length SHP2 recombinant protein (Homo sapiens (Human), UniProt Q06124); assay: Assay of full-length SHP2 phosphatase activity; assay type: biochemical; details: DiFMUP substrate, with activating peptide
How it was run: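 Readout: DiFMUP hydrolysis fluorescence (355/460 nm) after 60 min at 25 °C, following 30 min RT preincubation of compound with peptide-activated full-length human SHP2. Controls were 1% DMSO with or without enzyme; IC50 by four-parameter logistic fit.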

Row | SMILES | IC50 ([1]; Homo sapiens, MIA PaCa-2, 2 h) | IC50 [2] | IC50 ([1]; 2 hours)
1 | COCC#Cc1ccc2c(c1)[C@@H](N)C1(CCN(c3cc(=O)n(-c4ccc(C#N)c(O)c4F)c(C)n3)CC1)C2 [Compound 186] | > 1000 nM | 42 nM | 
2 | C#Cc1ccc2c(c1)[C@@H](N)C1(CCN(c3cc(=O)n(-c4ccc(C#N)c(F)c4Cl)c(C)n3)CC1)C2 [Compound 198] | 191 nM | 16 nM | 
3 | C#Cc1ccc2c(c1)[C@@H](N)C1(CCN(c3cc(=O)n(-c4ccc(OC)c(Cl)c4Cl)c(C)n3)CC1)C2 [Compound 211] | 161 nM | 17 nM | 
4 | C#Cc1ccc2c(c1)[C@@H](N)C1(CCN(c3ncc(Sc4ccnc(N)n4)c(N)n3)CC1)C2 [Compound 213] | 447 nM | 68 nM | 
5 | CC#Cc1ccc2c(c1)[C@@H](N)C1(CCN(c3ncc(Sc4ccnc(N)c4Cl)c(N)n3)CC1)C2 [Compound 215] | 167 nM | 25 nM | 
6 | C#Cc1cc2c(cc1F)CC1(CCN(c3cc(=O)n(-c4cccc(Cl)c4Cl)c(C)n3)CC1)[C@@H]2N [Compound 228] | > 1000 nM | 203 nM | 
7 | CNC(=O)C#Cc1ccc2c(c1)[C@@H](N)C1(CCN(c3ncc(Sc4cccnc4C(F)(F)F)nn3)CC1)C2 [Compound 246] | 688 nM | 133 nM | 
8 | CCNC(=O)C#Cc1ccc2c(c1)[C@@H](N)C1(CCN(c3ncc(N4CCCc5ncccc54)nc3C)CC1)C2 [Compound 258] | 188 nM | 10 nM | 
9 | CNC(=O)C#Cc1ccc2c(c1)[C@@H](N)C1(CCN(c3ncc(N4CCCc5ncccc54)nc3C)CC1)C2 [Compound 263] | 204 nM | 9 nM | 
10 | CCNC(=O)C#Cc1ccc2c(c1)[C@@H](N)C1(CCN(c3cnc(Sc4ccnc(N)c4Cl)c(C#N)n3)CC1)C2 [Compound 272] | 252 nM | 17 nM | 
11 | C#Cc1ccc2c(c1)[C@@H](N)C1(CCN(c3ncc(-c4cn(C)c5ncccc45)c(=O)n3C)CC1)C2 [Compound 285] | 962 nM | 85 nM | 
12 | C#Cc1ccc2c(c1)[C@@H](N)C1(CCN(c3ncc(N4CCCc5ncccc54)c(=O)n3C)CC1)C2 [Compound 287] | 140 nM | 12 nM | 

More lines, in order of falling IC50 [2], values ahead:

Row | IC50 ([1]; Homo sapiens, MIA PaCa-2, 2 h) | IC50 [2] | IC50 ([1]; 2 hours) | SMILES
13 | 20 nM | 9 nM |  | CCNC(=O)C#Cc1ccc2c(c1)[C@@H](N)C1(CCN(c3nc(N)c(Sc4ccnc(N)c4Cl)nc3Cl)CC1)C2 [Compound 224]
14 |  | 4 nM | 100 nM | CC#Cc1ccc2c(c1)[C@@H](N)C1(CCN(c3cc(=O)n(-c4ccc(F)c(F)c4Cl)c(C)n3)CC1)C2 [Compound 214]
15 | 23 nM | 4 nM |  | CNC(=O)C#Cc1cc2c(cc1F)CC1(CCN(c3nc(N)c(Sc4ccnc(N)c4Cl)nc3Cl)CC1)[C@@H]2N [Compound 223]
16 | 153 nM | 2.8 nM |  | CC#Cc1ccc2c(c1)[C@@H](N)C1(CCN(c3cnc(Sc4ccnc(N)c4Cl)nn3)CC1)C2 [Compound 234]
17 | 9 nM | 0.5 nM |  | Nc1nccc(Sc2cnc(N3CCC4(CC3)Cc3ccc(C#CC(=O)N5CCC5)cc3[C@H]4N)cn2)c1Cl [Compound 303]
